Data on six compounds can be found in PubChem BioAssay (NCI).

Where “and” joins values, the source holds several entries; their conditions need not be identical. Equal values may be shown once.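 48-hour exposure; five concentrations; linearly interpolated endpoints. GI50 is the concentration that inhibits growth by half. At the TGI there is no net growth.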

Assay in all cases: DTP human tumour cell line panel, 48 h
Experiment [1] relates to 786-0 renal.
The test system of experiment [2] is CCRF-CEM leukemia.
The test system of experiment [3] is HCT-116 colon.
The test system of experiment [4] is HOP-62 NSCLC.
Experiment [5] has as its system MALME-3M melanoma.
Experiment [6] concerns NCI-H460 lung.
The subject of experiment [7] is OVCAR-5 ovarian.
Experiment [8] concerns SN12C renal.
Experiment [9] deals with SW-620 colon.
For experiment [10], the system named is T-47D breast.

As a reminder, the GI50 is the concentration that inhibits growth by half. Broadly, the TGI is the concentration at which net growth stops. Read a high TGI as lower sensitivity of the cells. Take `Fc1ccc(Nc2nc(Nc3ccc(-c4nc5ccccc5[nH]4)cc3)c3cn[nH]c3n2)cc1`: the GI50 in experiment [1] is 1.63 µM; in [2] it was 2.63 µM; in [3], 1.75 µM; in experiment [4] it was 2.04 µM; in [5], 1.72 µM; in experiment [6] it was 1.99 µM. The GI50 in experiment [7] is 2.66 µM; in experiment [8], 1.99 µM; in experiment [9] it was 2.03 µM; in experiment [10], 1.9 µM. For the same compound, the TGI was determined as 3.11 µM in experiment [1]; 6.9 µM in experiment [2]; 3.58 µM in experiment [3]; 5.02 µM in experiment [4]; 3.51 µM in [5]; 3.97 µM in [6]. Moreover, the TGI came to 7.62 µM in experiment [7], 4.47 µM in [8], 4.24 µM in experiment [9] and 5 µM in [10].

Turning to `NS(=O)(=O)c1ccc(N=Nc2c[nH]c(=O)c(O)c2)cc1`, the TGI is greater than 100 µM in experiment [1]; 44.1 µM in experiment [2]; greater than 100 µM in experiment [3]; greater than 100 µM in experiment [4]; 82.4 µM in experiment [5]; greater than 100 µM in [6]. Moreover, the TGI in experiment [7], in [8], in experiment [9] and in experiment [10] was greater than 100 µM each time.

Turning to `CNc1cc(-c2cccc(OC(F)(F)F)c2)nc2ccc(N3CCCC3)cc12`, the GI50 was 1.56 µM and 1.71 µM and 1.55 µM in experiment [1]; 2.02 µM and 1.96 µM and 1.76 µM in experiment [2]; 1.3 µM and 1.79 µM and 1.21 µM in [3]; 1.62 µM and 1.69 µM and 1.72 µM in experiment [4]; 1.78 µM and 1.92 µM and 1.7 µM in experiment [5]; 1.6 µM and 1.75 µM in experiment [6]. For the same compound, the GI50 is 1.68 µM and 2.04 µM and 1.87 µM in [7]; 1.76 µM and 1.68 µM and 1.71 µM in experiment [8]; 1.56 µM and 1.84 µM and 1.75 µM in experiment [9]; 1.59 µM and 1.76 µM in experiment [10]. Besides, the TGI was 2.91 µM and 3.22 µM and 2.97 µM in experiment [1]; 4.52 µM and 4.49 µM and 4.01 µM in experiment [2]; 2.58 µM and 3.32 µM and 2.52 µM in experiment [3]; 3.11 µM and 3.16 µM in [4]; 3.24 µM and 3.4 µM and 3.16 µM in experiment [5]; 3.07 µM and 3.44 µM in experiment [6]. Also, the TGI was 3.18 µM and 3.73 µM and 3.34 µM in experiment [7]; 3.36 µM and 3.14 µM and 3.26 µM in experiment [8]; 3.08 µM and 3.79 µM and 3.6 µM in experiment [9]; 3.51 µM and 3.47 µM in experiment [10].

For the compound `Oc1[nH]c2ccccc2c1C=Nc1ccc(-n2cncn2)cc1`, the GI50 in [1] was greater than 25 µM; in experiment [2], 3.06 µM; in experiment [3], greater than 22.1 µM; in experiment [4], greater than 13.8 µM; in [5] it was greater than 16 µM; in experiment [6], greater than 23 µM. Besides, the GI50 in experiment [7] was greater than 25 µM; in experiment [8], 14.6 µM; in experiment [9], greater than 25 µM; in [10], 8.79 µM. In addition, the TGI in [1] is greater than 25 µM; in experiment [2], greater than 25 µM; in experiment [3], greater than 25 µM; in experiment [4] it was greater than 22.2 µM; in [5], greater than 25 µM; in experiment [6] it was greater than 25 µM. Also, the TGI is greater than 25 µM in experiment [7], greater than 25 µM in experiment [8], greater than 25 µM in experiment [9] and greater than 21.9 µM in experiment [10].

With `CCc1c(C)c2cc(-n3c(-c4ccc(OC)cc4)csc3=N)c(O)c(C)c2oc1=O`, the GI50 in experiment [1] is 1.7 µM; in [2], 1.54 µM; in experiment [3] it was 1.23 µM; in experiment [4], 1.67 µM; in experiment [5], 1.73 µM; in experiment [6] it was 2.25 µM. For the same compound, the GI50 in [7] was 2.19 µM; in experiment [8] it was 1.82 µM; in [9], 1.32 µM; in experiment [10] it was 0.551 µM. Besides, the TGI in experiment [1] is 4.72 µM; in experiment [2], greater than 100 µM; in experiment [3], 2.99 µM; in [4] it was 8.53 µM; in [5], 6.26 µM; in [6] it was 10.6 µM. Also, the total growth inhibition concentration (TGI) stood at 4.75 µM in experiment [7], 4.89 µM in [8], 3.28 µM in experiment [9] and 4.24 µM in experiment [10].

As to `CCCCCCCCN=C(NCCCCCCCC)SCc1cccc2ccccc12`, the GI50 was 1.24 µM in experiment [1]; 2.35 µM in experiment [2]; 0.73 µM in [3]; 1.71 µM in experiment [4]; 1.46 µM in experiment [5]; 1.69 µM in [6]. For the same compound, the GI50 in [7] was 1.36 µM; in experiment [8] it was 1.27 µM; in experiment [9] it was 1.65 µM; in experiment [10], 1.55 µM. In addition, the TGI in experiment [1] turned out to be 2.7 µM; in [2], 9.69 µM; in experiment [3], 2.01 µM; in experiment [4], 3.13 µM; in experiment [5], 3.68 µM; in experiment [6] it was 3.38 µM. In addition, the TGI in experiment [7] stood at 2.79 µM; in experiment [8], 2.63 µM; in experiment [9] it was 3.36 µM; in experiment [10], 3.01 µM.
